Broadly, the IC50 is the point on the concentration scale where inhibition reaches its midpoint.

The source made the active and inactive calls. The calls are words filed in the database; no cut-off is given here.

The values that follow come from ChEMBL document CHEMBL1157321, “Bioactivity profiling using HPLC/microtiter-plate analysis: application to a New Zealand marine alga-derived fungus, Gliocladium sp” (J Nat Prod, 2006).

One experiment deals with Bacillus subtilis. Put plainly: Antibacterial activity against Bacillus subtilis at 40 ug/disk. Format: functional. The conditions noted are these: for zone of inhibition at 40 µg/disc: read-out: IZ.
Experiment [1] deals with Trichophyton mentagrophytes. Nature of the experiment: Antifungal activity against Trichophyton mentagrophytes at 40 ug/disk. Format: functional. Conditions: for zone of inhibition at 40 µg/disc: read-out: IZ.
Another experiment relates to Amorphotheca resinae. Put plainly: Antifungal activity against Cladosporium resinae at 40 ug/disk. The conditions noted are these: for zone of inhibition at 40 µg/disc: read-out: IZ. The experiment is classed as functional.
Another experiment concerns P388. Nature of the experiment: Cytotoxicity against mouse P388 cells. Format: functional, cell-based.

As to `C[C@@H]1CCC(=O)/C=C/C(=O)O[C@H](C)C(=O)/C=C/C(=O)O1`, the zone of inhibition at 40 µg/disc (in the experiment with Bacillus subtilis; in experiment [1]) was 1 mm throughout. In the experiment with Amorphotheca resinae, the outcome was inactive. In the experiment with P388, this compound showed an IC50 of 3900 nM.
For the compound `C[C@@H]1CC[C@@H](O)/C=C/C(=O)O[C@H](C)C(=O)/C=C/C(=O)O1`, the zone of inhibition at 40 µg/disc turned out to be 6 mm in the experiment on Bacillus subtilis, 2 mm in experiment [1] and 1 mm in the experiment with Amorphotheca resinae. Further, it took 550 nM to reach half-maximal inhibition in the experiment on P388 (IC50).
As to `CC(C)=CCOc1ccc(C[C@H]2NC(=O)[C@H](C)NC(=O)[C@@H](Cc3ccc(O)cc3)NC(=O)CNC(=O)[C@H](C)NC(=O)[C@H](Cc3ccccc3)OC2=O)cc1`, the outcome (in the experiment with Bacillus subtilis; in experiment [1]; in the experiment with Amorphotheca resinae; in the experiment on P388) was inactive.
On to `C[C@@H]1CC[C@@H](O)/C=C/C(=O)O[C@H](C)[C@@H](O)/C=C/C(=O)O1` [CLONOSTACHYDIOL], for which the outcome (with Bacillus subtilis; in experiment [1]; in the experiment on Amorphotheca resinae) was inactive. In addition, the IC50 with P388 was determined as 25000 nM.
Regarding `C[C@@H]1CCC(=O)/C=C/C(=O)O[C@H](C)[C@@H](O)/C=C/C(=O)O1`, the zone of inhibition at 40 µg/disc came out at 3 mm with Bacillus subtilis, 3 mm in experiment [1] and 5 mm in the experiment with Amorphotheca resinae. Besides, the IC50 with P388 came out at 1900 nM.
